PMC12040169 (PLOS Biology, 2025)

Assay: in vitro
Conditions: human, hela cells, % viability

Going from `c1ccc(CCN2CCN(Cc3cccnc3)CC2)cc1` [CBK126424] to `c1ccc(CCN2CCN(CC3COc4ccccc4O3)CC2)cc1` (stereo not drawn) [CBK138342], the viability at 28.5 h, 10 µM falls from 103% to 86%.

Going from `CCCc1[nH]nc(O)c1Cc1cc(F)ccc1Br` [CBK075031] to `CCCCOc1ccc(Sc2nc(C)cc(C)n2)cc1` [CBK009219], the viability at 28.5 h, 10 µM falls from 94.6% to 92.1%.

Compared with `Cc1noc(C)c1S(=O)(=O)Nc1nc(=O)[nH]cc1F` [CBK067569], `Cc1cc(C(F)(F)F)c2c(NCc3ccoc3)n[nH]c2n1` [CBK284698] is lower in viability at 28.5 h, 10 µM: 103% for the first, 82.9% for the second.

Going from `COc1ccc(-n2c(C)c([N+](=O)[O-])c3ccc(O)cc32)cc1` [CBK115330] to `COc1ccc(C(=O)C2=C(O)C(=O)N(CCCO)C2c2ccc(Br)cc2)cc1` (stereo not drawn) [CBK263769], the viability at 28.5 h, 10 µM rises from 85% to 95.5%.

Going from `COc1ccc(C(=O)N2CCN(C)CC2)cc1Nc1cncc(-c2cc3ccccc3o2)n1` [CBK155266T] to `COc1cc(C(=O)N2CCC3(CC2)CC(=O)c2ccc(C)cc2O3)ccc1O` [CBK166045], the viability at 28.5 h, 10 µM falls from 89.9% to 86.6%.

Compared with `CC(=O)NCC(CN1CCOCC1)([N+](=O)[O-])[N+](=O)[O-]` [CBK261337], `Cc1ccc(S(=O)(=O)CC(CN2CCOCC2)N2CCOCC2)cc1` (stereo not drawn) [CBK264590] is higher in viability at 28.5 h, 10 µM: 88.2% for the first, 99.1% for the second.

Compared with `COc1ccccc1CN1CCC2(CCCNC2=O)CC1` [CBK284823], `COc1cccc2c3c([nH]c12)C1(CCN(CCOc2ccccc2)CC1)N(C=O)CC3` [CBK039423] is higher in viability at 28.5 h, 10 µM: 85.2% for the first, 112% for the second.

First: COc1cccc(CC(=O)N2CCC(Cc3ccc(-c4ccccc4)cc3)(C(N)=O)CC2)c1 [CBK285776]
Second: O=C(Cc1ccc(Cl)cc1)Nc1cccc(C(=O)Nc2ccccc2C(=O)O)c1 [CBK264750]
The viability at 28.5 h, 10 µM of the first is lower: 94.2% for the first, 107% for the second.

Compared with `N#C/C(=C\c1cn(Cc2ccc(Cl)cc2Cl)nc1-c1ccccc1)c1nc2ccccc2[nH]1` [CBK262545], `O=S(=O)(Oc1ccc(-c2cnc3ccccc3n2)cc1)c1ccccc1` [CBK261104] is higher in viability at 28.5 h, 10 µM: 87.3% for the first, 93.4% for the second.

Going from `Cn1c2ccccc2c2nnc(SCCCC(=O)c3ccc4c(c3)OCCO4)nc21` [CBK268750] to `Cc1cccc2sc(NC(=O)C3COc4ccccc4O3)nc12` (stereo not drawn) [CBK287367], the viability at 28.5 h, 10 µM rises from 97.5% to 113%.

Going from `Cc1nc2ccccn2c1-c1csc(N)n1` [CBK288628B] to `Cc1cc(C(=O)NCCn2ccnc2C)c2ccccc2n1` [CBK281895], the viability at 28.5 h, 10 µM rises from 91.7% to 100%.

First: N#Cc1cccc(Nc2cncc(-c3cccs3)n2)c1 [CBK066030]
Second: OCC1CCCN1c1cncc(-c2ccc3ccccc3c2)n1 (stereo not drawn) [CBK037197]
The viability at 28.5 h, 10 µM of the first is lower: 95.4% for the first, 104% for the second.

Going from `O=c1[nH]c2ccccc2n1C1CCN(S(=O)(=O)c2cccs2)CC1` [CBK149689] to `O=[N+]([O-])c1ccccc1S(=O)(=O)N1CCN(S(=O)(=O)Cc2ccccc2)CC1` [CBK264230], the viability at 28.5 h, 10 µM falls from 98.4% to 96.9%.

Going from `Cc1cc(-c2cn3cc(C(=O)N4CCCC4)nc3c(=O)n2C)c(C)o1` [CBK307300] to `Cc1cc(O)cc(C2CCCN(C(=O)c3ccc(F)c(F)c3)C2)n1` (stereo not drawn) [CBK283406], the viability at 28.5 h, 10 µM rises from 83.3% to 105%.

Compared with `CC(=O)Nc1cccc(NC(=O)CCCC(=O)O)c1` [CBK261598], `COc1ccc(S(=O)(=O)N(C)CC(=O)Nc2cccc(C(F)(F)F)c2)cc1OC` [CBK266242] is lower in viability at 28.5 h, 10 µM: 97.9% for the first, 95.5% for the second.

Going from `Cc1c(C(C)N)cnn1-c1ccc(C#N)cc1` (stereo not drawn) [CBK305869] to `Cc1c(S(=O)(=O)Nc2cc(C(F)(F)F)ccc2N2CCOCC2)cnn1-c1ccccc1` [CBK062551], the viability at 28.5 h, 10 µM rises from 80.9% to 99.7%.

Going from `COc1ccc(CCN(Cc2ccc(Cl)c(Cl)c2)C(=O)NCc2ccc(C#N)cc2)cc1OC` [CBK158771] to `N#Cc1ccc(CSc2nnc(COc3ccccc3)n2Cc2ccco2)cc1` [CBK267539], the viability at 28.5 h, 10 µM falls from 100% to 87.9%.

Going from `Nc1cc(Cl)nc(SCC2CCCCC2)n1` [CBK007970] to `C=Cn1ncc(CN2CCN(C3CCCCC3)C(=O)C2)c1C` [CBK282526], the viability at 28.5 h, 10 µM rises from 93.2% to 107%.

First: O=C(NCc1nc2ccccc2[nH]1)c1ccc2[nH]ccc2c1 [CBK149079]
Second: Cc1cc2c(=O)n(Cc3ccco3)c(SCc3nc4ccccc4[nH]3)nc2s1 [CBK268202]
The viability at 28.5 h, 10 µM of the first is higher: 89% for the first, 88.2% for the second.

First: CC1(C)[C@H]2CC[C@]1(C)[C@@H](OCCNc1ccccc1)C2 [CBK021967]
Second: CN1CCC(N(C)C(=O)NCCc2c[nH]c3ccccc23)C1 (stereo not drawn) [CBK156012]
The viability at 28.5 h, 10 µM of the first is higher: 87.8% for the first, 85.4% for the second.

First: CN(Cc1ccccc1)c1nccnc1-c1ccc(CO)cc1 [CBK038067]
Second: COc1nccnc1-c1ccc(SC)cc1 [CBK106795]
The viability at 28.5 h, 10 µM of the first is higher: 101% for the first, 95% for the second.

Going from `Cn1c(=O)n(CC(=O)OCc2ccccc2)c2cccnc21` [CBK284019] to `N/C(=N\OC(=O)CSc1ccccc1)c1ccccn1` [CBK266056], the viability at 28.5 h, 10 µM rises from 91.1% to 105%.

Going from `CN(C)CCCNC(=O)C1CCN(c2nc3c(-c4ccccc4F)csc3c(=O)[nH]2)CC1` [CBK215438] to `CN(CCN1CCCCC1)C(=O)C1CC(=O)Nc2ccccc21` (stereo not drawn) [CBK282729], the viability at 28.5 h, 10 µM rises from 93.7% to 105%.

Going from `CCN(CC)C(=O)N1CCN(CCC#N)CC1` [CBK027538] to `CC1CCCN(C(=O)N(C)C)C1` (stereo not drawn) [CBK023175], the viability at 28.5 h, 10 µM rises from 94.9% to 118%.

First: O=S(=O)(c1ccc(Br)cc1F)N1CCCCC1CO (stereo not drawn) [CBK051302]
Second: O=C(c1cccc(NS(=O)(=O)c2cc(F)c(Br)cc2F)c1)N1CCOCC1 [CBK039007]
The viability at 28.5 h, 10 µM of the first is higher: 92.9% for the first, 86.7% for the second.

Compared with `COc1ccc(OCCOCCN2CCOCC2)cc1` [CBK261999], `O=C(NCCCN1CCOCC1)c1cnc(-c2ccccc2)c(-c2ccncc2)c1` [CBK036664] is higher in viability at 28.5 h, 10 µM: 91.3% for the first, 106% for the second.

Going from `O=S(=O)(/C=C/c1ccccc1)Nc1cccc2cc[nH]c12` [CBK155788] to `CC(=O)c1sccc1NS(=O)(=O)c1ccc2ccccc2c1` [CBK200042], the viability at 28.5 h, 10 µM rises from 82.7% to 89.5%.

First: Cc1nn(CCC(=O)NC2CCOc3ccccc32)c(C)c1Cl (stereo not drawn) [CBK281684]
Second: O=C(O)CCn1cc(CN2CCOc3ccccc3C2)cn1 [CBK306507]
The viability at 28.5 h, 10 µM of the first is lower: 96.7% for the first, 101% for the second.

Compared with `Cc1ncsc1CCOc1nccnc1NC(C)C` [CBK115728], `CSCCN1CCC(Oc2nccnc2OCc2cccnc2)CC1` [CBK083173] is lower in viability at 28.5 h, 10 µM: 106% for the first, 90.3% for the second.

Going from `Cc1ccnc(N2C(=O)c3ccc(C(=O)c4ccc5c(c4)C(=O)N(c4cc(C)ccn4)C5=O)cc3C2=O)c1` [CBK263041] to `O=C1c2ccc3c4c(ccc(c24)C(=O)N1c1ccncc1)C(=O)N(c1ccncc1)C3=O` [CBK261390], the viability at 28.5 h, 10 µM rises from 93.4% to 95.4%.

Going from `Cc1ccc(CS(=O)(=O)N(CC(C)C)C2CC2)c(F)c1` [CBK306460] to `CNC(=O)c1ccc(CN(Cc2noc(C(C)C)n2)C2CC2)cc1` [CBK304084], the viability at 28.5 h, 10 µM rises from 82.9% to 83%.

First: O=C1N(CCc2ccccc2)CC=CCC12CN(Cc1ccc3[nH]ccc3c1)CCO2 (stereo not drawn) [CBK286130]
Second: O=C1CCCC[C@@H]2[C@@H](N1)[C@H](c1ccccc1)CN2Cc1ccc2ccccc2n1 [CBK286281]
The viability at 28.5 h, 10 µM of the first is higher: 105% for the first, 93.1% for the second.

Going from `COc1ccccc1OCC(=O)Nc1cc(C)nc2ccccc12` [CBK122728] to `Cc1cccc(C)c1NC(=O)CC1Sc2ccccc2NC1=O` (stereo not drawn) [CBK267160], the viability at 28.5 h, 10 µM falls from 97.3% to 97%.

Going from `COc1ccc([C@H]2C3CCCCC3[C@@H]2NC(=O)C2CCCO2)cc1` (stereo partly drawn) [CBK282990] to `CC(C)c1ccc(/C=C/C(=O)NC2CC2)cc1` [CBK149640], the viability at 28.5 h, 10 µM falls from 108% to 105%.

Going from `CN1CCN(C(=O)COc2ccc(S(=O)(=O)Nc3ccc(Cl)cc3)cc2)CC1` [CBK268248] to `CS(=O)(=O)c1ccc(Cn2ccnc(N3CCC(Sc4ccccc4)CC3)c2=O)cc1` [CBK144444], the viability at 28.5 h, 10 µM falls from 102% to 84.2%.

Compared with `N#CC1CCCc2c1[nH]c1ccccc21` (stereo not drawn) [CBK098397], `C[C@@H]1CN(C(=O)c2n[nH]c3ccccc23)C[C@H](C)O1` [CBK200232] is higher in viability at 28.5 h, 10 µM: 74.9% for the first, 98.6% for the second.

Compared with `CC(C)C(=O)Nc1cc2cccnc2c(-c2ccsc2)n1` [CBK081259], `Nc1cc2cccnc2c(-c2ccc(OC(F)(F)F)cc2)n1` [CBK061926] is lower in viability at 28.5 h, 10 µM: 100% for the first, 90% for the second.

Going from `Cc1ccc(S(=O)(=O)N(CC(=O)Nc2ccccc2-c2ccccc2)c2cccc(C)c2)cc1` [CBK265988] to `Clc1ccccc1-c1nnn(Cc2ccc(-c3nnn[nH]3)cc2)n1` [CBK267838], the viability at 28.5 h, 10 µM falls from 98% to 89.3%.

Compared with `O=C1c2cccc([N+](=O)[O-])c2C(=O)N1c1cc(Cl)cc(Cl)c1` [CBK115326], `COc1ccc(C(=O)NC(=S)Nc2ccc(O)c(-c3nc4cc(C)c(C)cc4o3)c2)cc1[N+](=O)[O-]` [CBK264039] is lower in viability at 28.5 h, 10 µM: 112% for the first, 111% for the second.

Compared with `CCCCn1c(SCc2nc(-c3ccncc3)no2)nc2ccsc2c1=O` [CBK288576], `O=S(=O)(Cc1cc(Cl)ccc1C(F)(F)F)c1cc2c(N3CCNCC3)nccc2s1` [CBK049960C] is higher in viability at 28.5 h, 10 µM: 87% for the first, 115% for the second.

Going from `Cc1c(C(C)NC(=O)C2C3CCC(O3)C2C(=O)O)cnn1C` (stereo not drawn) [CBK286887] to `COCc1cn(C2CC(O)C(CO)O2)c(=O)[nH]c1=O` (stereo not drawn) [CBK201230], the viability at 28.5 h, 10 µM rises from 91.4% to 99.8%.

First: CCN1CCCCC1CNC(=O)c1sc(C)nc1C (stereo not drawn) [CBK282206]
Second: OC1(CN2CCCC2)CCN(Cc2sccc2Cl)CC1 [CBK307491]
The viability at 28.5 h, 10 µM of the first is lower: 90.2% for the first, 105% for the second.

Compared with `C=CCN1CC2(c3ccccc3)CN(CC=C)CC(c3ccccc3)(C1)C2=O` [CBK265987], `Cc1cc(=O)c2ccccc2n1CC(=O)N1CCNC(=O)C1C` (stereo not drawn) [CBK306511] is higher in viability at 28.5 h, 10 µM: 86.3% for the first, 109% for the second.

Compared with `COc1cc(OC)nc(NC(=O)CN2CCN(c3ccc(F)cc3)CC2)n1` [CBK267259], `O=[N+]([O-])c1cccc(S(=O)(=O)Nc2nnc(C(F)(F)F)s2)c1` [CBK062002] is higher in viability at 28.5 h, 10 µM: 96.5% for the first, 118% for the second.

`CN(C)CC(O)CN1C(=O)NC(C)(C)C1=O` (stereo not drawn) [CBK027078] and `O=S(=O)(N1CCCCCC1)N1CCN(S(=O)(=O)N2CCCCC2)CC1` [CBK269001] are the same in viability at 28.5 h, 10 µM: 114% for the first, 114% for the second.
